Laboratory results taken from US6008395A, “Platinum (IV) complex, production process thereof and carcinostatic agent containing the same” (priority 1995, dated 1999).
Where two headings read alike, the source gives them in different places.

How the values were obtained:
[1] = Stability in an aqueous solution of hydrochloric acid, half life; assay type: physicochemical; conditions: 37° C., 50 μM complex, in the dark
Experimental: Stability of each of the thus obtained complexes in an aqueous solution of hydrochloric acid at 37° C. is shown below in terms of its half life.
The measurement was carried out at a complex concentration of 50 μM at 37° C. in the dark.

L 1210 [2] = assay type: in vivo, CDF1 mouse; conditions: days 1, 5 and 9; for T/C %: 125 or more judged effective
Experimental: ip: On the day 0, L 1210 (10^5 cells/mouse) was transplanted into the abdominal cavity of each CDF1 mouse, and each of the platinum complexes was intraperitoneally administered on the day 1, day 5 and day 9 (Q04D×03). Using 5 animals in one group, T/C % (T: treated, C: control) is calculated from survived days. A T/C % value of 125 or more was judged effective. The number of survived (or tumor bearing) animals is shown as n/5. A total of 10 mice were used in the control.
Carcinostatic effect ip--ip, L 1210, three administrations on days 1, 5 and 9
L 1210 (10^5 cells/mouse), one group=5 CDF1 mice, ip administration on the days 1, 5 and 9.

[3] = In vitro reduction by an ascorbic acid salt, half life; assay type: physicochemical; conditions: 50 μM complex, pH 7.5 (50 mM HEPES-NaOH), 37° C., dark; for Half life (reduction), 5 mM: 5 mM ascorbic acid salt; for Half life (reduction), 100 mM: 100 mM ascorbic acid salt
Experimental: Test results of the in vitro reduction of the thus obtained complexes by an ascorbic acid salt are shown below in terms of half life.
The measurement was carried out at a complex concentration of 50 μM, pH 7.5 (50 mM HEPES-NaOH buffer), at 37° C. in the dark.

L 1210 [4] = assay: (Oral) carcinostatic effect L 1210, ip-po; assay type: in vivo, CDF1 mouse; conditions: Q02D×05, suspension in olive oil, 140% or more judged effective
Experimental: po: On the day 0, L 1210 (10^5 cells/mouse) was transplanted into the abdominal cavity of each CDF1 mouse, and each of the platinum complexes was orally administered on the day 1, day 3, day 5, day 7 and day 9 (Q02D×05), or on the day 1 to day 5 (Q01D×05). The oral administration was carried out with a 10, 7.5 or 5 times higher dose than the optimum amount of each platinum complex by ip (T/C % of ip; 100 mg/kg, 75 mg/kg or 50 mg/kg, respectively). A value of 140% or more was judged effective.
(Oral) carcinostatic effect L 1210, ip-po, every two days Q02D×05
L 1210 (10^5 cells/mouse); one group=5 CDF1 mice; Suspension in olive oil was administered into the stomach through a catheter.

[5] = Behaviour in strongly acidic gastric juice (1 N HCl, pH 0.1); assay type: physicochemical; conditions: orally administered
[6] = clinical trial; cited from earlier work

SMILES	Half life, 0.05 M HCl [1]	Half life, 1 M HCl [1] [h]	T/C % (L 1210 [2]; 12.5 mg/kg ip) [%]	T/C % (L 1210 [2]; 25 mg/kg ip) [%]	T/C % (L 1210 [2]; 50 mg/kg ip) [%]	T/C % (L 1210 [2]; 100 mg/kg ip) [%]	Half life (reduction), 5 mM [3] [h]	Half life (reduction), 100 mM [3] [min]	number of survived (or tumor bearing) animals (n/5) (L 1210 [2]; 25 mg/kg ip)	T/C % (L 1210 [4]; 5 mg/kg po) [%]	T/C % (L 1210 [4]; 10 mg/kg po) [%]	T/C % (L 1210 [4]; 15 mg/kg po) [%]	number of survived (or tumor bearing) animals (n/5) (L 1210 [2]; 50 mg/kg ip)	T/C % (L 1210 [4]; 2.5 mg/kg po) [%]	one carboxylic acid substituted by Cl [5]	clinical development / side effects [6]
CCCC(=O)[O-].NC1CCCCC1N.O=C([O-])C(=O)[O-].[Cl-].[Pt+4] [C4--OHP · Cl, [PtCl(OCOC3 H7) (oxalato) (lR,2R-dach)]]	> 50 h	6.1	130	145	195	63	0.6	< 6								
CCCCC(=O)[O-].NC1CCCCC1N.O=C([O-])C(=O)[O-].[Br-].[Pt+4] [C5--OHP · Br, t,t,c,c-[PtBr(OCOC4 H9)(ox)(1R,2R-dach)]]				395	107				4/5	160	163	73				
CCCCC(=O)[O-].NC1CCCCC1N.O=C([O-])C(=O)[O-].[Cl-].[Pt+4] [C5--OHP · Cl, t,t,c,c-[PtCl(OCOC4 H9)(ox)(1R,2R-dach)]]	> 50 h	7.4		168	283	88	0.8	< 6		214	143	60	4/5	140		
CCCCCC(=O)[O-].NC1CCCCC1N.O=C([O-])C(=O)[O-].[Br-].[Pt+4] [C6--OHP · Br]				373	96	69			4/5	173	180	88				
CCCCCC(=O)[O-].NC1CCCCC1N.O=C([O-])C(=O)[O-].[Cl-].[Pt+4] [C6--OHP · Cl, [PtCl (OCOC5 H11) (oxalato) (1R,2R-dach)]]	N.D. (significant decrease in concentration was not observed)	8.9		173	280	80	1.2	< 6		191	168	98	1/5	143		
CCCCCCC(=O)[O-].NC1CCCCC1N.O=C([O-])C(=O)[O-].[Cl-].[Pt+4] [C7--OHP · Cl, [PtCl(OCOC6 H13) (oxalato) (1R,2R-dach)]]	N.D. (significant decrease in concentration was not observed)	11.3	122	137	176		1.6	< 6		129	151			117		
CCCC(=O)[O][Pt]12([O]C(=O)CCC)([NH]C3CCCCC3[NH]1)[O]C(=O)C(=O)[O]2 [Complex C4-OHP, t,c,c-[Pt (OCOC3 H7)2 (ox) (1R,2R-dach)]]															gradually substituted by Cl	
CCCCC(=O)O.CCCCC(=O)O.N[C@@H]1CCCC[C@H]1N.O=C(O)C(=O)O.[Pt] [Complex C5-OHP, t,c,c-[Pt (OCOC4 H9)2 (ox) (1R,2R-dach)]]															gradually substituted by Cl	
CCCCCC(=O)[O-].CCCCCC(=O)[O-].NC1CCCCC1N.O=C([O-])C(=O)[O-].[Pt+4] [Complex C6-ORP, t,c,c-[Pt (OCOC5 H11)2 (ox) (1R,2R-dach)]]															gradually substituted by Cl	
N[C@@H]1CCCC[C@H]1N.[Cl][Pt+2]([Cl])([Cl])[Cl] [tetraplatin]																clinical development has been suspended due to the side effects, such as toxicity
